Measured values taken from patent publication EP0399422A1, “Benzocycloalkane derivatives and production thereof” (Takeda Chemical Industries, Ltd., priority 1989, dated 1990).

System: Acyl-CoA:cholesterol acyl transferase (ACAT)
Experiment: Acyl-CoA:cholesterol acyl transferase (ACAT) inhibiting activity
Type: biochemical, male Sprague-Dawley rats
Design: tested at 1 µM
Conditions: inhibition of labeled cholesterol ester formation at 10⁻⁶ M of the test compounds; small intestine mucosa microsome fraction
Method: An ACAT enzyme preparation was obtained from the small intestine mucosa microsome fraction from male Sprague-Dawley rats of 6 weeks of age fasted for 20 hours, as described by Heider et al. [Journal of Lipid Research, 24, 1127 (1982)].
The ACAT activity was calculated by determining the yield of a labeled cholesterol ester from [1-¹⁴C]oleoyl-CoA and endogenous cholesterol using the method of Helgerud et al. [Journal of Lipid Research, 22, 271 (1981)].
The inhibition percentages of the labeled cholesterol ester formation at 10⁻⁶ M of the test compounds are shown in Table 1 as ACAT inhibiting activity indices.

Row | Structure (SMILES) | % ACAT inhibition
1 | Cc1cc(CN(C(=O)Nc2ccc(F)cc2F)C2Cc3ccccc3C2)c(C(C)C)cc1O [Example 46, N-(2,4-Difluorophenyl)-N′-(4-hydroxy-2-isopropyl-5-methylbenzyl)-N′-(2-indanyl)urea] | 77%
2 | O=C(Nc1ccc(F)cc1F)N(C1Cc2ccccc2C1)C(c1ccccc1)c1ccccc1 [Example 9, N-(2,4-Difluorophenyl)-N′-(2-indanyl)-N′-diphenyl methylurea] | 53%
3 | Cc1cc(CN(C(=O)Nc2ccc(F)cc2F)C2Cc3ccccc3C2)c(C)cc1O [Example 37, N-(2,4-Difluorophenyl)-N′-(4-hydroxy-2,5-dimethylbenzyl)-N′-(2-indanyl)urea] | 93%
4 | Cc1cc(O)c(C(C)(C)C)cc1CN(C(=O)Nc1ccc(F)cc1F)C1CCCc2ccccc2C1 (stereo not drawn) [Example 50, N-(5-tert-Butyl-4-hydroxy-2-methylbenzyl)-N′-(2,4-difluorophenyl)-N-(6,7,8,9-tetrahydro-5H-6-benzocycloheptenyl)urea] | 85%
5 | Cc1cccc(CN(C(=O)Nc2ccc(F)cc2F)C2Cc3ccccc3C2)c1 [Example 11, N-(2,4-Difluorophenyl)-N′-(2-indanyl)-N′-(3-methylbenzyl)urea] | 64%
6 | O=C(Nc1ccc(F)cc1F)N(Cc1ccccc1)C1CCCc2ccccc21 (stereo not drawn) [Example 58, N-Benzyl-N′-(2,4-difluorophenyl)-N-(1,2,3,4-tetrahydro-1-naphthyl)urea] | 94%
7 | CC(C)(C)c1cc(CN(C(=O)Nc2ccc(F)cc2F)C2Cc3ccccc3C2)cc(C(C)(C)C)c1O [Example 42, N-(3,5-Di-tert-butyl-4-hydroxybenzyl)-N′-(2,4-difluorophenyl)-N-(2-indanyl)urea] | 62%
8 | COc1cc(CN(C(=O)Nc2ccc(F)cc2F)C2CCCc3ccccc32)cc(OC)c1O (stereo not drawn) [Example 61, N-(2,4-Difluorophenyl)-N′-(4-hydroxy-3,5-dimethoxybenzyl)-N′-(1,2,3,4-tetrahydro-1-naphthyl)urea] | 53%
9 | COc1cc(CN(C(=O)Nc2ccc(F)cc2F)C2Cc3ccccc3C2)cc(OC)c1OC [Example 22, N-(2,4-Difluorophenyl)-N′-(2-indanyl)-N′-(3,4,5-trimethoxybenzyl)urea] | 55%
10 | COc1ccc(OC)c2c1CC(N(Cc1ccccc1)C(=O)Nc1ccc(F)cc1F)C2 [Example 28, N-Benzyl-N′-(2,4-difluorophenyl)-N-(4,7-dimethoxy-2-indanyl)urea] | 56%
11 | Cc1ccccc1CN(C(=O)Nc1ccc(F)cc1F)C1Cc2ccccc2C1 [Example 10, N-(2,4-Difluorophenyl)-N′-(2-indanyl)-N′-(2-methylbenzyl)urea] | 72%
12 | COc1cc(CN(C(=O)Nc2ccc(F)cc2F)C2CCCCc3ccccc32)cc(OC)c1O (stereo not drawn) [Example 62, N-(2,4-Difluorophenyl)-N′-(6,7,8,9-tetrahydro-5H-5-benzocycloheptenyl)-N′-(4-hydroxy-3,5-dimethoxybenzyl)urea] | 69%
13 | CC(C)c1ccc(CN(C(=O)Nc2ccc(F)cc2F)C2Cc3ccccc3C2)cc1 [Example 13, N-(4-Isopropylbenzyl)-N′-(2,4-difluorophenyl)-N-(2-indanyl)urea] | 86%
14 | COc1cc(C)c(CN(C(=O)Nc2ccc(F)cc2F)C2Cc3ccccc3C2)cc1C [Example 36, N-(2,4-Difluorophenyl)-N′-(2-indanyl)-N′-(4-methoxy-2,5-dimethylbenzyl)urea] | 72%
15 | O=C(Nc1ccc(F)cc1F)N(Cc1cccs1)C1Cc2ccccc2C1 [Example 23, N-(2,4-Difluorophenyl)-N′-(2-indanyl)-N′-(2-thienylmethyl)urea] | 57%
16 | CC(C)c1cc(CN(C(=O)Nc2ccc(F)cc2F)C2Cc3ccccc3C2)cc(C(C)C)c1O [Example 40, N-(2,4-Difluorophenyl)-N′-(4-hydroxy-3,5-diisopropylbenzyl)-N′-(2-indanyl)urea] | 83%
17 | Cc1ccc(C)c(CN(C(=O)Nc2ccc(F)cc2F)C2CCCc3ccccc3C2)c1 (stereo not drawn) [Example 56, N-(2,4-Difluorophenyl)-N′-(6,7,8,9-tetrahydro-5H-6-benzocycloheptenyl)-N′-(2,5-dimethylbenzyl)urea] | 79%
18 | O=C(Nc1ccc(F)cc1F)N(Cc1ccccc1)C1CCCCc2ccccc21 (stereo not drawn) [Example 59, N-Benzyl-N′-(2,4-difluorophenyl)-N-(6,7,8,9-tetrahydro-5H-5-benzocycloheptenyl)urea] | 80%
19 | CC(c1ccccc1)N(C(=O)Nc1ccc(F)cc1F)C1Cc2ccccc2C1 (stereo not drawn) [Example 6, N-(2,4-Difluorophenyl)-N′-(2-indanyl)-N′-(1-phenylethyl)urea] | 80%
20 | COc1ccc(CN(C(=O)Nc2ccc(F)cc2F)C2Cc3ccccc3C2)c(OC)c1 [Example 20, N-(2,4-Difluorophenyl)-N′-(2-indanyl)-N′-(2,4-dimethoxybenzyl)urea] | 72%

Row | Structure (SMILES) | % ACAT inhibition
21 | O=C(Nc1ccc(F)cc1F)N(Cc1ccccc1)C1Cc2ccccc2C1 [Example 2, N-Benzyl-N′-(2,4-difluorophenyl)-N-(2-indanyl)urea] | 65%
22 | O=C(Nc1ccc(F)cc1F)N(CC1CCCCC1)C1Cc2ccccc2C1 [Example 26, N-Cyclohexylmethyl-N′-(2,4-difluorophenyl)-N-(2-indanyl)urea] | 60%
23 | Cc1cc(O)c(C(C)C)cc1CN(C(=O)Nc1ccc(F)cc1F)C1Cc2ccccc2C1 [Example 45, N-(2,4-Difluorophenyl)-N′-(4-hydroxy-5-isopropyl-2-methylbenzyl)-N′-(2-indanyl)urea] | 96%
24 | COc1cc(CN(C(=O)Nc2ccc(F)cc2F)C2Cc3ccccc3C2)ccc1O [Example 33, N-(2,4-Difluorophenyl)-N′-(4-hydroxy-3-methoxybenzyl)-N′-(2-indanyl)urea] | 57%
25 | COc1ccccc1CN(C(=O)Nc1ccc(F)cc1F)C1Cc2ccccc2C1 [Example 19, N-(2,4-Difluorophenyl)-N′-(2-indanyl)-N′-(2-methoxybenzyl)urea] | 55%
26 | O=C(Nc1ccc(F)cc1F)N(Cc1ccccc1)C1CCc2ccccc21 (stereo not drawn) [Example 57, N-Benzyl-N′-(2,4-difluorophenyl)-N-(1-indanyl)urea] | 84%
27 | Cc1ccc(CN(C(=O)Nc2ccc(F)cc2F)C2Cc3ccccc3C2)cc1 [Example 12, N-(2,4-Difluorophenyl)-N′-(2-indanyl)-N′-(4-methylbenzyl)urea] | 77%
28 | Cc1cc(CN(C(=O)Nc2ccc(F)cc2F)C2Cc3ccccc3C2)c(C)c(C)c1O [Example 39, N-(2,4-Difluorophenyl)-N′-(4-hydroxy-2,3,5-trimethylbenzyl)-N′-(2-indanyl)urea] | 89%
29 | COc1cc(CN(C(=O)Nc2ccc(F)cc2F)C2Cc3ccccc3C2)c(OC)c(C)c1C [Example 35, N-(2,4-Difluorophenyl)-N′-(2-indanyl)-N′-(2,5-dimethoxy-3,4-dimethylbenzyl)urea] | 58%
30 | COc1cc(CN(C(=O)Nc2ccc(F)cc2F)C2CCc3ccccc32)cc(OC)c1O (stereo not drawn) [Example 60, N-(2,4-Difluorophenyl)-N′-(4-hydroxy-3,5-dimethoxybenzyl)-N′-(1-indanyl)urea] | 83%
31 | Cc1cc(O)c(C(C)(C)C)cc1CN(C(=O)Nc1ccc(F)cc1F)C1Cc2ccccc2C1 [Example 41, N-(5-tert-Butyl-4-hydroxy-2-methylbenzyl)-N′-(2,4-difluorophenyl)-N-(2-indanyl)urea] | 95%
32 | Cc1ccc(CN(C(=O)Nc2ccc(F)cc2F)C2Cc3ccccc3C2)c(C)c1 [Example 15, N-(2,4-Difluorophenyl)-N′-(2-indanyl)-N′-(2,4-dimethylbenzyl)urea] | 88%
33 | O=C(Nc1ccc(F)cc1F)N(Cc1ccc(Cl)cc1)C1Cc2ccccc2C1 [Example 5, N-(4-Chlorobenzyl)-N′-(2,4-difluorophenyl)-N-(2-indanyl)urea] | 76%
34 | O=C(Nc1ccc(F)cc1F)N(Cc1ccccc1)C1CCc2ccccc2C1 (stereo not drawn) [Example 44, N-Benzyl-N′-(2,4-difluorophenyl)-N-(1,2,3,4-tetrahydro-2-naphthyl)urea] | 63%
35 | CCC(c1ccccc1)N(C(=O)Nc1ccc(F)cc1F)C1Cc2ccccc2C1 (stereo not drawn) [Example 7, N-(2,4-Difluorophenyl)-N′-(2-indanyl)-N′-(1-phenylpropyl)urea] | 72%
36 | O=C(Nc1ccc(F)cc1F)N(Cc1ccccc1)C1CCCc2ccccc2C1 (stereo not drawn) [Example 49, N-Benzyl-N′-(2,4-difluorophenyl)-N-(6,7,8,9-tetrahydro-5H-6-benzocycloheptenyl)urea] | 89%
37 | Cc1ccc(C)c(CN(C(=O)Nc2ccc(F)cc2F)C2Cc3ccccc3C2)c1 [Example 16, N-(2,4-Difluorophenyl)-N′-(2-indanyl)-N′-(2,5-dimethylbenzyl)urea] | 86%
38 | Cc1cc(C)c2c(c1)CC(N(Cc1ccccc1)C(=O)Nc1ccc(F)cc1F)C2 (stereo not drawn) [Example 27, N-Benzyl-N′-(2,4-difluorophenyl)-N-(4,6-dimethyl-2-indanyl)urea] | 58%
39 | Cc1cc(C)c(CN(C(=O)Nc2ccc(F)cc2F)C2Cc3ccccc3C2)c(C)c1 [Example 17, N-(2,4-Difluorophenyl)-N′-(2-indanyl)-N′-(2,4,6-trimethylbenzyl)urea] | 75%
